# Earlier results as cited in patent US20230364244A1, “DENDRIMER COMPOSITIONS AND METHODS FOR DRUG DELIVERY TO INJURED KIDNEY” (Ashvattha Therapeutics, Inc., priority 2020, published 2023).
# Biological target: T1, PPAR-δ (Homo sapiens, UniProt Q03181)
# T1 construct: host or cells: human mesenchymal stem cells (endogenous receptor)
# T1 sequence (Q03181 1-441): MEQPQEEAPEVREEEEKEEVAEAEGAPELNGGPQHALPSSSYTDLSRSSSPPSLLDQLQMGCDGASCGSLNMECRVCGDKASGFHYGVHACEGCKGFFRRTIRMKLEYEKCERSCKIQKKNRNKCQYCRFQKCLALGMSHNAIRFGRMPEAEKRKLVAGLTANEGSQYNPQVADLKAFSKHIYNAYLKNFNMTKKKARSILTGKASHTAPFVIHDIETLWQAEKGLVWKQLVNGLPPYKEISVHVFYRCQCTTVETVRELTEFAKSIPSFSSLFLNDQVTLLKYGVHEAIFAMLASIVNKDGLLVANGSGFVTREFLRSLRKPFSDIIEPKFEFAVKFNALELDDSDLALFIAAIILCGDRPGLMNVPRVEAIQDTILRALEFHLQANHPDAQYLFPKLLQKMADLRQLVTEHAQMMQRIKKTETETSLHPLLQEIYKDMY
# Conditions: co-culture; inhibition of PPAR-δ in MSCs
smiles,measurement,value
O=C(NCCS(=O)(=O)c1ccc(C(F)(F)F)cn1)c1ccc(Cl)cc1 [GSK3787],ability of human MSCs to limit proliferation of peripheral blood mononuclear cells,enhanced their ability to limit proliferation of peripheral blood mononuclear cells
